# Measurements published in PubChem BioAssay (NCI).
#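 Compound exposure: 48 hours, 5 concentrations, 96-well plates. Here, GI50 denotes the concentration required for 50% inhibition of growth. The concentration for full growth arrest is given as TGI.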
# Legend:
# Experiment in all cases: NCI tumour cell line growth inhibition, 48 h
# MOLT-4 leukemia = test system: MOLT-4 leukemia
# NCI-H522 lung = test system: NCI-H522 lung
# MALME-3M melanoma = test system: MALME-3M melanoma
# IGROV1 ovarian = test system: IGROV1 ovarian
# SNB-19 CNS = test system: SNB-19 CNS
# OVCAR-8 ovarian = test system: OVCAR-8 ovarian
# HCT-15 colon = test system: HCT-15 colon
# SF-539 CNS = test system: SF-539 CNS
# EKVX NSCLC = test system: EKVX NSCLC
# CCRF-CEM leukemia = test system: CCRF-CEM leukemia
structure (smiles),measurement,setting,value
CCOC(=O)CNC(=O)N(CC)C12CC3CC(CC(C3)C1)C2,TGI,MOLT-4 leukemia,322 µM
same,TGI,NCI-H522 lung,323 µM
same,TGI,MALME-3M melanoma,278 µM
same,TGI,IGROV1 ovarian,524 µM
same,TGI,SNB-19 CNS,430 µM
same,TGI,OVCAR-8 ovarian,417 µM
same,TGI,HCT-15 colon,228 µM
same,TGI,SF-539 CNS,251 µM
same,TGI,EKVX NSCLC,358 µM
same,TGI,CCRF-CEM leukemia,388 µM
CCOP(=O)(OCC)C(c1ccc(F)cc1)N(C(=O)NC(F)(F)F)c1cccc(C(F)(F)F)c1 (stereo not drawn),TGI,MOLT-4 leukemia,> 100 µM
same,TGI,NCI-H522 lung,> 100 µM
same,TGI,MALME-3M melanoma,> 100 µM
same,TGI,IGROV1 ovarian,> 100 µM
same,TGI,SNB-19 CNS,> 100 µM
same,TGI,OVCAR-8 ovarian,> 100 µM
same,TGI,HCT-15 colon,> 100 µM
same,TGI,SF-539 CNS,> 100 µM
same,TGI,EKVX NSCLC,> 100 µM
same,TGI,CCRF-CEM leukemia,> 100 µM
CC(=O)Nc1ccc(/C=C/c2ccc(NC(=O)Nc3ccc(/C=C/c4ccc(NC(C)=O)cc4S(=O)(=O)O)c(S(=O)(=O)O)c3)cc2S(=O)(=O)O)c(S(=O)(=O)O)c1,TGI,MOLT-4 leukemia,> 100 µM
same,TGI,NCI-H522 lung,> 100 µM
same,TGI,MALME-3M melanoma,> 100 µM
same,TGI,IGROV1 ovarian,> 100 µM
same,TGI,SNB-19 CNS,> 100 µM
same,TGI,OVCAR-8 ovarian,> 100 µM
same,TGI,HCT-15 colon,> 100 µM
same,TGI,SF-539 CNS,> 100 µM
same,TGI,EKVX NSCLC,> 100 µM
same,TGI,CCRF-CEM leukemia,> 100 µM
COc1ccccc1CNCCCN1C(=O)c2ccc3c4c(ccc(c24)C1=O)C(=O)N(CCCNCCNCCCN)C3=O,GI50,MOLT-4 leukemia,1.73 µM
same,TGI,MOLT-4 leukemia,5.81 µM
same,GI50,NCI-H522 lung,1.22 µM
same,TGI,NCI-H522 lung,3.71 µM
same,GI50,MALME-3M melanoma,1.61 µM
same,TGI,MALME-3M melanoma,3.2 µM
same,GI50,IGROV1 ovarian,3.69 µM
same,TGI,IGROV1 ovarian,15.9 µM
same,GI50,SNB-19 CNS,2.18 µM
same,TGI,SNB-19 CNS,11.8 µM
same,GI50,OVCAR-8 ovarian,2.08 µM
same,TGI,OVCAR-8 ovarian,11.7 µM
same,GI50,HCT-15 colon,12.2 µM
same,TGI,HCT-15 colon,26.8 µM
same,GI50,SF-539 CNS,2.88 µM
same,TGI,SF-539 CNS,9.58 µM
same,GI50,EKVX NSCLC,4.17 µM
same,TGI,EKVX NSCLC,16.3 µM
same,GI50,CCRF-CEM leukemia,3.17 µM
same,TGI,CCRF-CEM leukemia,56.8 µM
CCC(C)NC1=NCC(C)S1 (stereo not drawn),TGI,MOLT-4 leukemia,> 100 µM
same,TGI,NCI-H522 lung,> 100 µM
same,TGI,MALME-3M melanoma,> 100 µM
same,TGI,IGROV1 ovarian,> 100 µM
same,TGI,SNB-19 CNS,> 100 µM
same,TGI,HCT-15 colon,> 100 µM
same,TGI,SF-539 CNS,> 100 µM
same,TGI,EKVX NSCLC,> 100 µM
same,TGI,CCRF-CEM leukemia,> 100 µM
CC1CC2=C(S(=O)(=O)c3ccccc3)CC(S(=O)(=O)c3ccccc3)(S(=O)(=O)c3ccccc3)CC21 (stereo not drawn),TGI,MOLT-4 leukemia,> 100 µM
same,TGI,IGROV1 ovarian,> 100 µM
same,TGI,SNB-19 CNS,> 100 µM
same,TGI,OVCAR-8 ovarian,> 100 µM
same,TGI,HCT-15 colon,> 100 µM
same,TGI,SF-539 CNS,> 100 µM
same,TGI,EKVX NSCLC,> 100 µM
same,TGI,CCRF-CEM leukemia,> 100 µM
Clc1ccc(C[P+](c2ccccc2)(c2ccccc2)c2ccccc2)c(Cl)c1,TGI,MOLT-4 leukemia,18.1 µM
same,TGI,NCI-H522 lung,7.18 µM
same,TGI,MALME-3M melanoma,15.7 µM
same,TGI,IGROV1 ovarian,15.6 µM
same,TGI,SNB-19 CNS,13 µM
same,TGI,OVCAR-8 ovarian,20.1 µM
same,TGI,HCT-15 colon,> 100 µM
same,TGI,SF-539 CNS,15.8 µM
same,TGI,EKVX NSCLC,31.4 µM
same,TGI,CCRF-CEM leukemia,21.3 µM
CCOC(=O)Cn1c(=O)ccn(COCCO)c1=O,TGI,MOLT-4 leukemia,> 100 µM
same,TGI,NCI-H522 lung,> 100 µM
same,TGI,MALME-3M melanoma,> 100 µM
same,TGI,IGROV1 ovarian,> 100 µM
same,TGI,SNB-19 CNS,> 100 µM
same,TGI,OVCAR-8 ovarian,> 100 µM
same,TGI,HCT-15 colon,> 100 µM
same,TGI,SF-539 CNS,> 100 µM
same,TGI,EKVX NSCLC,> 100 µM
same,TGI,CCRF-CEM leukemia,> 100 µM
COc1cc2oc(-c3ccc(O)cc3)c(OC)c(=O)c2c(O)c1OC,GI50,MOLT-4 leukemia,27.4 µM
same,TGI,MOLT-4 leukemia,> 100 µM
same,GI50,NCI-H522 lung,45.2 µM
same,TGI,NCI-H522 lung,> 100 µM
same,GI50,MALME-3M melanoma,28.4 µM
same,TGI,MALME-3M melanoma,> 100 µM
same,GI50,IGROV1 ovarian,76.6 µM
same,TGI,IGROV1 ovarian,> 100 µM
same,GI50,SNB-19 CNS,> 100 µM
same,TGI,SNB-19 CNS,> 100 µM
same,GI50,OVCAR-8 ovarian,86.1 µM
same,TGI,OVCAR-8 ovarian,> 100 µM
same,GI50,HCT-15 colon,23.3 µM
same,TGI,HCT-15 colon,> 100 µM
same,GI50,SF-539 CNS,44.1 µM
same,TGI,SF-539 CNS,> 100 µM
same,GI50,EKVX NSCLC,97 µM
same,TGI,EKVX NSCLC,> 100 µM
same,GI50,CCRF-CEM leukemia,15.2 µM
same,TGI,CCRF-CEM leukemia,> 100 µM
C[C@@H]1Nc2cc(NC(=O)OCCF)nc(N)c2N=C1c1ccccc1,TGI,MOLT-4 leukemia,< 0.0001 µM
same,TGI,NCI-H522 lung,0.509 µM
same,TGI,MALME-3M melanoma,49 µM
same,TGI,IGROV1 ovarian,< 0.0001 µM
same,GI50,SNB-19 CNS,< 0.0001 µM
same,TGI,OVCAR-8 ovarian,30 µM
same,TGI,HCT-15 colon,> 100 µM
same,TGI,SF-539 CNS,< 0.0001 µM
CCOC(=O)c1ccc(N[C@@H]2c3cc4c(cc3C(c3cc(OC)c(O)c(OC)c3)[C@H]3C(=O)OCC32)OCO4)cc1O (stereo partly drawn),TGI,MOLT-4 leukemia,1.21 µM
same,TGI,NCI-H522 lung,2.07 µM
same,TGI,MALME-3M melanoma,14.2 µM
same,TGI,IGROV1 ovarian,> 43.5 µM
same,TGI,SNB-19 CNS,> 25.9 µM
same,TGI,OVCAR-8 ovarian,> 21.9 µM
same,TGI,HCT-15 colon,2.54 µM
same,TGI,SF-539 CNS,2.69 µM
same,TGI,EKVX NSCLC,> 22.6 µM
same,TGI,CCRF-CEM leukemia,> 100 µM
C/C(=N/NC(N)=S)c1ccc[nH]1,TGI,MOLT-4 leukemia,> 100 µM
same,TGI,NCI-H522 lung,> 100 µM
same,TGI,MALME-3M melanoma,> 100 µM
same,TGI,IGROV1 ovarian,> 100 µM
same,TGI,SNB-19 CNS,> 100 µM
same,TGI,OVCAR-8 ovarian,> 100 µM
same,TGI,HCT-15 colon,> 100 µM
same,TGI,SF-539 CNS,> 100 µM
same,TGI,EKVX NSCLC,> 100 µM
same,TGI,CCRF-CEM leukemia,> 100 µM
COCCCNc1nc(N)c(C#N)c(C#N)c1C#N,TGI,MOLT-4 leukemia,> 10 µM
same,TGI,NCI-H522 lung,> 10 µM
same,TGI,MALME-3M melanoma,> 10 µM
same,TGI,IGROV1 ovarian,> 10 µM
same,TGI,SNB-19 CNS,> 10 µM
same,TGI,OVCAR-8 ovarian,> 10 µM
same,TGI,HCT-15 colon,> 10 µM
same,TGI,SF-539 CNS,> 10 µM
same,TGI,EKVX NSCLC,> 10 µM
same,TGI,CCRF-CEM leukemia,6.67 µM
CC1CCCCNC1=S (stereo not drawn),TGI,MOLT-4 leukemia,> 10 µM
same,TGI,MALME-3M melanoma,> 10 µM
same,TGI,IGROV1 ovarian,> 10 µM
same,TGI,SNB-19 CNS,> 10 µM
same,TGI,OVCAR-8 ovarian,> 10 µM
same,TGI,HCT-15 colon,> 10 µM
same,TGI,SF-539 CNS,> 10 µM
same,TGI,EKVX NSCLC,> 10 µM
same,TGI,CCRF-CEM leukemia,> 10 µM
COc1ccc(S(=O)(=O)c2ccccc2[N+](=O)[O-])cc1,TGI,MOLT-4 leukemia,> 100 µM
same,TGI,MALME-3M melanoma,> 100 µM
same,TGI,IGROV1 ovarian,> 100 µM
same,TGI,SNB-19 CNS,> 100 µM
same,TGI,OVCAR-8 ovarian,> 100 µM
same,TGI,HCT-15 colon,> 100 µM
same,TGI,SF-539 CNS,> 100 µM
same,TGI,EKVX NSCLC,> 100 µM
same,TGI,CCRF-CEM leukemia,> 100 µM
